Results as given in US12459974B2, “Bicyclic peptide ligands specific for Nectin-4” (priority 2018, dated 2025).
Read-outs that look alike come from different tables or passages of the source. *1 amine or outer side, *2 acyl side, *3 side chain or, on linkers, in order; H or OH if unused. Where a SMILES comes first, the peptide text is derived from it. Bridges are numbered along the chain shown (N, C = ends). [ ]: non-standard residue; d: D form. TATA = O=C(CC[*:1])N1CN(C(=O)CC[*:2])CN(C(=O)CC[*:3])C1; 1Nal = N[C@@H](Cc1cccc2ccccc12)C(=O)O; NMeT = CN[C@H](C(=O)O)[C@@H](C)O; hArg = N=C(N)NCCCC[C@H](N)C(=O)O

Biological target: T1, human Nectin-4 (Homo sapiens, UniProt Q96NY8)
T1 sequence (Q96NY8 32-510): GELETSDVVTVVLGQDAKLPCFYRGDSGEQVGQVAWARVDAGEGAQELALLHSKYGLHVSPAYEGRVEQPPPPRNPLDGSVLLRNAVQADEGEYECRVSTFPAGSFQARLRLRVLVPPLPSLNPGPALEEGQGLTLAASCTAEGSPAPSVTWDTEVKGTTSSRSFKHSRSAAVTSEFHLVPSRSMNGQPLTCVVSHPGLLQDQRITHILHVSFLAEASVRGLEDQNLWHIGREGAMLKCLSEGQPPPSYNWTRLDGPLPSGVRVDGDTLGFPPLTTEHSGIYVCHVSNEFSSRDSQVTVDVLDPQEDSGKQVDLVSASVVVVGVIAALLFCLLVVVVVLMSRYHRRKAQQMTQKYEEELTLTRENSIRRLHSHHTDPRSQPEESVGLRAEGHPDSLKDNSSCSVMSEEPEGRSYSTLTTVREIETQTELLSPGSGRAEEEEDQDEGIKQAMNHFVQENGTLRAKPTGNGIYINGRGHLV
Experiment: Nectin-4 competition binding assay (fluorescence polarisation)
Summary of the method: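 Ki derived by cubic-equation fit of mP data, with tracer peptide concentration, its Kd and Nectin-4 level as fixed inputs. Competition set up by adding 2-fold peptide dilutions (≤5% DMSO), then Nectin-4, then fluorescent peptide; polarisation measured as for direct binding.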

[1] = competition with fluorescent peptide SEQ ID NO: 217, read-out: Ki

| Ki [1] | SMILES | Ki |
| --- | --- | --- |
| 123 nM | CC[C@H](C)[C@@H]1NC(=O)[C@H](C)NC(=O)[C@H](CC(N)=O)NC(=O)[C@@H]2CSCCC(=O)N3CN(CN(C3)C(=O)CCSC[C@H](NC(=O)[C@H](Cc3c[nH]c4ccccc34)NC(=O)[C@H](CCCCN)NC(=O)[C@H](CCC(N)=O)NC(C)=O)C(=O)N[C@@H](C)C(=O)N3CCC[C@H]3C(=O)N[C@@H](CC(C)C)C(=O)N[C@@H](CO)C(=O)N[C@@H](CC(=O)O)C(=O)N[C@@H](Cc3ccc(O)cc3)C(=O)N[C@@H](Cc3c[nH]c4ccccc34)C(=O)N2)C(=O)CCSC[C@@H](C(N)=O)NC1=O [BCY7632, Ac-QKW-(SEQ ID NO: 107)] (Ac-QKWCAPLSDYWCNAIC-NH2; linker 4-12-16 via TATA; C-terminus assumed) |  |
| 33.6 nM | CC[C@H](C)[C@@H]1NC(=O)[C@@H]2CCCN2C(=O)[C@H](Cc2c[nH]c3ccccc23)NC(=O)[C@H](CO)NC(=O)[C@H](Cc2c[nH]c3ccccc23)NC(=O)[C@H](CC(N)=O)NC(=O)[C@H](CO)NC(=O)[C@H](CCSC)NC(=O)[C@@H]2CSCCC(=O)N3CN(CN(C3)C(=O)CCSC[C@H](NC(C)=O)C(=O)N3CCC[C@H]3C(=O)N[C@@H](Cc3ccccc3)C(=O)NCC(=O)N2)C(=O)CCSC[C@@H](C(N)=O)NC(=O)[C@H](Cc2c[nH]c3ccccc23)NC1=O [BCY7658, Ac-(SEQ ID NO: 12)] (Ac-CPFGCMSNWSWPIWC-NH2; linker 1-5-15 via TATA; C-terminus assumed) |  |
|  | CC[C@H](C)[C@@H]1NC(=O)[C@@H]2CCCN2C(=O)[C@H](Cc2c[nH]c3ccccc23)NC(=O)[C@H](CO)NC(=O)[C@H](Cc2c[nH]c3ccccc23)NC(=O)[C@H](CC(=O)O)NC(=O)[C@H](CCCCN)NC(=O)[C@H](CCSC)NC(=O)[C@@H]2CSCCC(=O)N3CN(CN(C3)C(=O)CCSC[C@H](NC(C)=O)C(=O)N3CCC[C@H]3C(=O)N[C@@H](Cc3ccccc3)C(=O)NCC(=O)N2)C(=O)CCSC[C@@H](C(N)=O)NC(=O)[C@H](Cc2c[nH]c3ccccc23)NC1=O [BCY7661, Ac-(SEQ ID NO: 15)] (Ac-CPFGCMKDWSWPIWC-NH2; linker 1-5-15 via TATA; C-terminus assumed) | 29.4 nM |
| 14.8 nM | CC[C@H](C)[C@@H]1NC(=O)[C@@H]2CCCN2C(=O)[C@H](Cc2c[nH]c3ccccc23)NC(=O)[C@H](CO)NC(=O)[C@H](Cc2c[nH]c3ccccc23)NC(=O)[C@H](Cc2c[nH]cn2)NC(=O)[C@H](CCCCN)NC(=O)[C@H](CCSC)NC(=O)[C@@H]2CSCCC(=O)N3CN(CN(C3)C(=O)CCSC[C@H](NC(C)=O)C(=O)N3CCC[C@H]3C(=O)N[C@@H](Cc3ccccc3)C(=O)NCC(=O)N2)C(=O)CCSC[C@@H](C(N)=O)NC(=O)[C@H](Cc2c[nH]c3ccccc23)NC1=O [BCY7662, Ac-(SEQ ID NO: 16)] (Ac-CPFGCMKHWSWPIWC-NH2; linker 1-5-15 via TATA; C-terminus assumed) |  |
| 24.1 nM | CC[C@H](C)[C@@H]1NC(=O)[C@@H]2CCCN2C(=O)[C@H]([C@@H](C)O)NC(=O)[C@H](CO)NC(=O)[C@H](Cc2c[nH]c3ccccc23)NC(=O)[C@H](CC(N)=O)NC(=O)[C@H](CCCCN)NC(=O)[C@H](CCSC)NC(=O)[C@@H]2CSCCC(=O)N3CN(CN(C3)C(=O)CCSC[C@H](NC(C)=O)C(=O)N3CCC[C@H]3C(=O)N[C@@H](Cc3ccccc3)C(=O)NCC(=O)N2)C(=O)CCSC[C@@H](C(N)=O)NC(=O)[C@H](Cc2c[nH]c3ccccc23)NC1=O [BCY7665, Ac-(SEQ ID NO: 19)] (Ac-CPFGCMKNWSTPIWC-NH2; linker 1-5-15 via TATA; C-terminus assumed) |  |
| 27 nM | CC[C@H](C)[C@@H]1NC(=O)[C@@H]2CCCN2C(=O)[C@H]([C@@H](C)O)NC(=O)[C@H](CO)NC(=O)[C@H](Cc2c[nH]c3ccccc23)NC(=O)[C@H](CCCCN)NC(=O)[C@H](CCCCNC(=N)N)NC(=O)[C@H](CCSC)NC(=O)[C@@H]2CSCCC(=O)N3CN(CN(C3)C(=O)CCSC[C@H](NC(C)=O)C(=O)N3CCC[C@H]3C(=O)N[C@@H](Cc3ccccc3)C(=O)N[C@H](CC(=O)O)C(=O)N2)C(=O)CCSC[C@@H](C(N)=O)NC(=O)[C@H](Cc2c[nH]c3ccccc23)NC1=O [BCY7822, Ac-(SEQ ID NO: 122)] |  |
| 41 nM | CC[C@H](C)[C@@H]1NC(=O)[C@@H]2CCCN2C(=O)[C@H]([C@@H](C)O)NC(=O)[C@H](CO)NC(=O)[C@H](Cc2c[nH]c3ccccc23)NC(=O)[C@H](CC(N)=O)NC(=O)[C@H](CCCCNC(=N)N)NC(=O)[C@H](CCSC)NC(=O)[C@@H]2CSCCC(=O)N3CN(CN(C3)C(=O)CCSC[C@H](NC(C)=O)C(=O)N3CCC[C@H]3C(=O)N[C@@H](Cc3ccccc3)C(=O)N[C@H](CCC(=O)O)C(=O)N2)C(=O)CCSC[C@@H](C(N)=O)NC(=O)[C@H](Cc2c[nH]c3ccccc23)NC1=O [BCY7903, Ac-(SEQ ID NO: 140)] |  |
| 10 nM | CC[C@H](C)[C@@H]1NC(=O)[C@@H]2CCCN2C(=O)[C@H]([C@@H](C)O)NC(=O)[C@H](CO)NC(=O)[C@H](Cc2c[nH]c3ccccc23)NC(=O)[C@H](CC(N)=O)NC(=O)[C@H](CCCCNC(=N)N)NC(=O)[C@H](CCSC)NC(=O)[C@@H]2CSCCC(=O)N3CN(CN(C3)C(=O)CCSC[C@H](NC(C)=O)C(=O)N3CCC[C@H]3C(=O)N[C@@H](Cc3ccccc3)C(=O)N[C@H](CO)C(=O)N2)C(=O)CCSC[C@@H](C(N)=O)NC(=O)[C@H](Cc2c[nH]c3ccccc23)NC1=O [BCY7907, Ac-(SEQ ID NO: 143)] |  |
| 191 nM | CC[C@H](C)[C@@H]1NC(=O)[C@@H]2CCCN2C(=O)[C@H]([C@@H](C)O)N(C)C(=O)[C@H](CO)NC(=O)[C@H](Cc2c[nH]c3ccccc23)NC(=O)[C@H](CC(N)=O)NC(=O)[C@H](CCCCNC(=N)N)NC(=O)[C@@H]2CSCCC(=O)N3CN(CN(C3)C(=O)CCSC[C@H](NC(C)=O)C(=O)N3CCC[C@H]3C(=O)N[C@@H](Cc3ccccc3)C(=O)N[C@H](CC(=O)O)C(=O)N2)C(=O)CCSC[C@@H](C(N)=O)NC(=O)[C@H](Cc2c[nH]c3ccccc23)NC1=O [BCY7979, Ac-(SEQ ID NO: 152)] (Ac-CPF[dD]C[hArg]NWS[NMeT]PIWC-NH2; linker 1-5-14 via TATA; C-terminus assumed) |  |
| 135 nM | CC[C@H](C)[C@@H]1NC(=O)[C@H](CCCNC(=N)N)NC(=O)[C@H](CC(N)=O)NC(=O)[C@@H]2CSCCC(=O)N3CN(CN(C3)C(=O)CCSC[C@H](NC(=O)[C@H](Cc3c[nH]c4ccccc34)NC(=O)[C@H](CCCCN)NC(=O)[C@H](CCC(N)=O)NC(C)=O)C(=O)N[C@@H](C)C(=O)N3CCC[C@H]3C(=O)N[C@@H](CC(C)C)C(=O)N[C@@H](CO)C(=O)N[C@@H](CC(=O)O)C(=O)N[C@@H](Cc3ccc(O)cc3)C(=O)N[C@@H](Cc3cccc4ccccc34)C(=O)N2)C(=O)CCSC[C@@H](C(N)=O)NC1=O [BCY7998, Ac-QKW-(SEQ ID NO: 153)] (Ac-QKWCAPLSDY[1Nal]CNRIC-NH2; linker 4-12-16 via TATA; C-terminus assumed) |  |
| 61.9 nM | CC[C@H](C)[C@@H]1NC(=O)[C@@H]2CCCN2C(=O)[C@H]([C@@H](C)O)NC(=O)[C@H](CO)NC(=O)[C@H](Cc2c[nH]c3ccccc23)NC(=O)[C@H](CC(N)=O)NC(=O)[C@H](CCCCNC(=N)N)NC(=O)[C@H](CCSC)NC(=O)[C@@H]2CSCCC(=O)N3CN(CN(C3)C(=O)CCSC[C@H](NC(=O)[C@H](CC(=O)O)NC(=O)[C@H](CC(=O)O)NC(=O)[C@H](CC(=O)O)NC(C)=O)C(=O)N3CCC[C@H]3C(=O)N[C@@H](Cc3ccccc3)C(=O)N[C@H](CC(=O)O)C(=O)N2)C(=O)CCSC[C@@H](C(N)=O)NC(=O)[C@H](Cc2c[nH]c3ccccc23)NC1=O [BCY8028, Ac-DDD-(SEQ ID NO: 115)] |  |

| SMILES | Ki [1] | Ki |
| --- | --- | --- |
| CC[C@H](C)[C@@H]1NC(=O)[C@@H]2CCCN2C(=O)[C@H](Cc2c[nH]c3ccccc23)NC(=O)[C@H](CO)NC(=O)[C@H](Cc2c[nH]c3ccccc23)NC(=O)[C@H](CC(N)=O)NC(=O)[C@H](CC(=O)O)NC(=O)[C@H](CCSC)NC(=O)[C@@H]2CSCCC(=O)N3CN(CN(C3)C(=O)CCSC[C@H](NC(C)=O)C(=O)N3CCC[C@H]3C(=O)N[C@@H](Cc3ccccc3)C(=O)NCC(=O)N2)C(=O)CCSC[C@@H](C(N)=O)NC(=O)[C@H](Cc2c[nH]c3ccccc23)NC1=O [BCY7659, Ac-(SEQ ID NO: 13)] (Ac-CPFGCMDNWSWPIWC-NH2; linker 1-5-15 via TATA; C-terminus assumed) | 77.9 nM |  |
| CC[C@H](C)[C@@H]1NC(=O)[C@@H]2CCCN2C(=O)[C@H](Cc2c[nH]c3ccccc23)NC(=O)[C@H](CO)NC(=O)[C@H](Cc2c[nH]c3ccccc23)NC(=O)[C@H](CC(N)=O)NC(=O)[C@H](CCCCNC(=N)N)NC(=O)[C@H](CCSC)NC(=O)[C@@H]2CSCCC(=O)N3CN(CN(C3)C(=O)CCSC[C@H](NC(C)=O)C(=O)N3CCC[C@H]3C(=O)N[C@@H](Cc3ccccc3)C(=O)NCC(=O)N2)C(=O)CCSC[C@@H](C(N)=O)NC(=O)[C@H](Cc2c[nH]c3ccccc23)NC1=O [BCY7660, Ac-(SEQ ID NO: 59)] | 26.2 nM |  |
| CC[C@H](C)[C@@H]1NC(=O)[C@@H]2CCCN2C(=O)[C@H](Cc2c[nH]c3ccccc23)NC(=O)[C@H](CO)NC(=O)[C@H](Cc2cccc3ccccc23)NC(=O)[C@H](CC(N)=O)NC(=O)[C@H](CCCCN)NC(=O)[C@H](CCSC)NC(=O)[C@@H]2CSCCC(=O)N3CN(CN(C3)C(=O)CCSC[C@H](NC(C)=O)C(=O)N3CCC[C@H]3C(=O)N[C@@H](Cc3ccccc3)C(=O)NCC(=O)N2)C(=O)CCSC[C@@H](C(N)=O)NC(=O)[C@H](Cc2c[nH]c3ccccc23)NC1=O [BCY7663, Ac-(SEQ ID NO: 111)] | 25.5 nM |  |
